This note sets out measurements from patent US7544701B2, “Sulfonyldihydrobenzimidazolone compounds as 5-hydroxytryptamine-6 ligands” (Wyeth, priority 2003, dated 2009).

pKi: −log10 of the molar value.

For this test, the target named is T1, human cloned 5-HT6 receptors (Homo sapiens, UniProt P50406).
T1 construct: expressed in transfected cells; host or cells: Hela cells
T1 sequence (P50406 whole entry): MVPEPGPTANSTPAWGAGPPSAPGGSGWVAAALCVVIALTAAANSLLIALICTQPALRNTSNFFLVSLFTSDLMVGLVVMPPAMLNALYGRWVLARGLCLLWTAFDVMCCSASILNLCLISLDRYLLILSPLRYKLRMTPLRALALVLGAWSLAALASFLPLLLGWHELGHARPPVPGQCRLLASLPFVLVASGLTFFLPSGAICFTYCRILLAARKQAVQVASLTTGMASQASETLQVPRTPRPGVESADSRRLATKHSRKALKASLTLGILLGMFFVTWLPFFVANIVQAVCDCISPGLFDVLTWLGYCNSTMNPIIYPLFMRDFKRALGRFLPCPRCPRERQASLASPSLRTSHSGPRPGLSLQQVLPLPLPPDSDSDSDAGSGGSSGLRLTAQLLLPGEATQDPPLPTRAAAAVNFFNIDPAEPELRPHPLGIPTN
In words: 5-HT6 binding affinity ([3H]-LSD displacement, membranes of Hela cells expressing human cloned 5-HT6 receptors). The following applies: [3H]-LSD 3.0 nM, 120 min, room temperature, Hela cell membranes. The protocol: The affinity of test compounds for the serotonin 5-HT6 receptor is evaluated in the following manner. Cultured Hela cells expressing human cloned 5-HT6 receptors are harvested and centrifuged at low speed (1,000×g) for 10.0 min to remove the culture media. The harvested cells are suspended in half volume of fresh physiological phosphate buffered saline solution and recentrifuged at the same speed. This operation is repeated. The collected cells are then homogenized in ten volumes of 50 mM Tris.HCl (pH 7.4) and 0.5 mM EDTA. The homogenate is centrifuged at 40,000×g for 30.0 min and the precipitate is collected. The obtained pellet is resuspended in 10 volumes of Tris.HCl buffer and recentrifuged at the same speed. The final pellet is suspended in a small volume of Tris.HCl buffer and the tissue protein content is determined in aliquots of 10-25 μl volumes. Bovine Serum Albumin is used as the standard in the protein determination according to the method described in Lowry et al., J. Biol. Chem., 193:265 (1951). The volume of the suspended cell membranes is adjusted to give a tissue protein concentration of 1.0 mg/ml of suspension. The prepared membrane suspension (10 times concentrated) is aliquoted in 1.0 ml volumes and stored at −70° C. until used in subsequent binding experiments.
Binding experiments are performed in a 96 well microtiter plate format, in a total volume of 200 μl. […] The test compounds are added in 20.0 μl volume.
The reaction is allowed to proceed in the dark for 120 min at room temperature, at which time, the bound ligand-receptor complex is filtered off on a 96 well unifilter with a Packard Filtermate® 196 Harvester. The bound complex caught on the filter disk is allowed to air dry and the radioactivity is measured in a Packard TopCount® equipped with six photomultiplier detectors, after the addition of 40.0 μl Microscint®-20 scintillant to each shallow well. The unifilter plate is heat-sealed and counted in a PackardTopCount® with a tritium efficiency of 31.0%.
Binding in the presence of varying concentrations of test compound is expressed as a percentage of specific binding in the absence of test compound. The results are plotted as log % bound versus log concentration of test compound. […] A linear regression line of data points is plotted, from which the IC50 value is determined and the Ki value is determined based upon the following equation: Ki=IC50/(1+L/KD) where L is the concentration of the radioactive ligand used and KD is the dissociation constant of the ligand for the receptor, both expressed in nM.
As usually defined, the pKi is the negative decadic logarithm of the Ki, by convention in mol/L. Read a low pKi as a high Ki. For “1-[(2,6-dichloroimidazo[2,1-b][1,3]thiazol-5-yl)sulfonyl]-3-(1,2,3,6-tetrahydropyridin-4-yl)-1,3-dihydro-2H-benzimidazol-2-one [Example 50]”, the negative-log Ki (pKi) was 7.74.
As for `CN(C)CCn1c(=O)n(S(=O)(=O)c2ccc(Cl)s2)c2ccccc21` [Example 4, 1-[(5-Chlorothien-2-yl)sulfonyl]-3-[2-(dimethylamino)ethyl]-1,3-dihydro-2H-benzimidazol-2-one], the figure is 7.37; as for `CN(C)CCn1c(=O)n(S(=O)(=O)c2c(Cl)nc3sccn23)c2ccccc21` [Example 5, 1-[(6-chloroimidazo[2,1-b][1,3]thiazol-5-yl)sulfonyl]-3-[2-(dimethylamino)ethyl]-1,3-dihydro-2H-benzimidazol-2-one], 7.70; as for `CN(C)CCn1c(=O)n(S(=O)(=O)c2ccc3ccccc3c2)c2ccccc21` [Example 6, 1-[2-(dimethylamino)ethyl]-3-(2-naphthylsulfonyl)-1,3-dihydro-2H-benzimidazol-2-one], 7.77.
Turning to `CN(C)CCn1c(=O)n(S(=O)(=O)c2ccc(Br)s2)c2ccccc21` [Example 10, 1-[(5-bromothien-2-yl)sulfonyl]-3-[2-(dimethylamino)ethyl]-1,3-dihydro-2H-benzimidazol-2-one], the pKi was 7.40.
`NCCn1c(=O)n(S(=O)(=O)c2ccc(Cl)s2)c2ccccc21` [Example 17, 1-(2-Aminoethyl)-3-[(5-chlorothien-2-yl)sulfonyl]-1,3-dihydro-2H-benzimidazol-2-one] gave a negative logarithm of the Ki (pKi) of 7.59.
The same measure for `NCCn1c(=O)n(S(=O)(=O)c2c(Cl)nc3sccn23)c2ccccc21` [Example 18, 1-(2-aminoethyl)-3-[(6-chloroimidazo[2,1-b][1,3]thiazol-5-yl)sulfonyl]-1,3-dihydro-2H-benzimidazol-2-one]: 8.22; for `NCCn1c(=O)n(S(=O)(=O)c2ccc3ccccc3c2)c2ccccc21` [Example 19, 1-(2-aminoethyl)-3-(2-naphthylsulfonyl)-1,3-dihydro-2H-benzimidazol-2-one]: 7.64; for `NCCn1c(=O)n(S(=O)(=O)c2ccc(Br)s2)c2ccccc21` [Example 20, 1-(2-aminoethyl)-3-[(5-bromothien-2-yl)sulfonyl]-1,3-dihydro-2H-benzimidazol-2-one]: 7.59.
With `O=c1n(C2CCNCC2)c2ccccc2n1S(=O)(=O)c1ccc2ccccc2c1` [Example 22, 3-(Naphth-2-ylsulfonyl)-1-piperidin-4-yl-1,3-dihydrobenzimidazol-2-one], the pKi was 7.70.
The molecule `O=c1n(C2CCNCC2)c2ccccc2n1S(=O)(=O)c1ccc(Cl)s1` [Example 23, 1-[(5-chlorothien-2-yl)sulfonyl]-3-piperidin-4-yl-1,3-dihydro-2H-benzimidazol-2-one] gave a pKi of 7.70.
The molecule `O=c1n(C2CCNCC2)c2ccccc2n1S(=O)(=O)c1ccc(Br)s1` [Example 24, 1-[(5-bromothien-2-yl)sulfonyl]-3-piperidin-4-yl-1,3-dihydro-2H-benzimidazol-2-one] showed a pKi of 8.30.
In turn, `O=c1n(C2CCNCC2)c2ccccc2n1S(=O)(=O)c1cc(Cl)c(Cl)s1` [Example 25, 1-[(4,5-dichlorothien-2-yl)sulfonyl]-3-piperidin-4-yl-1,3-dihydro-2H-benzimidazol-2-one] gave a negative-log Ki (pKi) of 7.49.
Molecule `O=c1n(C2CCNCC2)c2ccccc2n1S(=O)(=O)c1cc(Cl)sc1Cl` [Example 26, 1-[(2,5-dichlorothien-3-yl)sulfonyl]-3-piperidin-4-yl-1,3-dihydro-2H-benzimidazol-2-one] showed a pKi of 7.47.
In turn, `O=c1n(C2CCNCC2)c2ccccc2n1S(=O)(=O)c1cc(Br)c(Br)s1` [Example 27, 1-[(4,5-dibromothien-2-yl)sulfonyl]-3-piperidin-4-yl-1,3-dihydro-2H-benzimidazol-2-one] showed a negative-log Ki (pKi) of 7.57. This pKi and that of the molecule before are within 0.2 log units of each other.
The same measure for `O=c1n(C2CCNCC2)c2ccccc2n1S(=O)(=O)c1cc(Br)c(Cl)s1` [Example 29, 1-[(4-bromo-5-chlorothien-2-yl)sulfonyl]-3-piperidin-4-yl-1,3-dihydro-2H-benzimidazol-2-one]: 7.70; for `O=c1n(C2CCNCC2)c2ccccc2n1S(=O)(=O)c1c(Cl)sc(Cl)c1Br` [Example 30, 1-[(4-bromo-2,5-dichlorothien-3-yl)sulfonyl]-3-piperidin-4-yl-1,3-dihydro-2H-benzimidazol-2-one]: 7.38; for `Cc1c(S(=O)(=O)n2c(=O)n(C3CCNCC3)c3ccccc32)sc2ccc(Cl)cc12` [Example 31, 1-[(5-chloro-3-methyl-1-benzothien-2-yl)sulfonyl]-3-piperidin-4-yl-1,3-dihydro-2H-benzimidazol-2-one]: 7.10.
Take `O=c1n(C2CCNCC2)c2ccccc2n1S(=O)(=O)c1c(Cl)nc2sccn12` [Example 32, 1-[(6-chloroimidazo[2,1-b][1,3]thiazol-5-yl)sulfonyl]-3-piperidin-4-yl-1,3-dihydro-2H-benzimidazol-2-one]: the pKi was 7.34. This pKi is 0.24 log units higher than that of the molecule before.
The same measure for `O=c1n(C2CCNCC2)c2ccccc2n1S(=O)(=O)c1c(Cl)nc2sc(Cl)cn12` [Example 33, 1-[(2,6-dichloroimidazo[2,1-b][1,3]thiazol-5-yl)sulfonyl]-3-piperidin-4-yl-1,3-dihydro-2H-benzimidazol-2-one]: 7.64; for `O=c1n(C2CCNCC2)c2ccccc2n1S(=O)(=O)c1c(Cl)nc2ccccn12` [Example 34, 1-[(2-chloroimidazo[1,2-a]pyridin-3-yl)sulfonyl]-3-piperidin-4-yl-1,3-dihydro-2H-benzimidazol-2-one]: 7.11.
The same measure for `O=c1n(C2CCNCC2)c2ccccc2n1S(=O)(=O)c1cccc2nsnc12` [Example 38, 1-[(2,1,3-benzothiadiazol-4-yl)sulfonyl]-3-piperidin-4-yl-1,3-dihydro-2H-benzimidazol-2-one]: 7.35.
As for `O=c1n(C2=CCNCC2)c2ccccc2n1S(=O)(=O)c1ccc2ccccc2c1` [Example 39, 1-(2-naphthylsulfonyl)-3-(1,2,3,6-tetrahydropyridin-4-yl)-1,3-dihydro-2H-benzimidazol-2-one], the figure is 8.22; as for `O=c1n(C2=CCNCC2)c2ccccc2n1S(=O)(=O)c1ccc(Cl)s1` [Example 40, 1-[(5-chlorothien-2-yl)sulfonyl]-3-(1,2,3,6-tetrahydropyridin-4-yl)-1,3-dihydro-2H-benzimidazol-2-one], 8.30.
`O=c1n(C2=CCNCC2)c2ccccc2n1S(=O)(=O)c1ccc(Br)s1` [Example 41, 1-[(5-bromothien-2-yl)sulfonyl]-3-(1,2,3,6-tetrahydropyridin-4-yl)-1,3-dihydro-2H-benzimidazol-2-one] had a pKi of 8.40.
With `O=c1n(C2=CCNCC2)c2ccccc2n1S(=O)(=O)c1cc(Cl)c(Cl)s1` [Example 42, 1-[(4,5-dichlorothien-2-yl)sulfonyl]-3-(1,2,3,6-tetrahydropyridin-4-yl)-1,3-dihydro-2H-benzimidazol-2-one], the pKi is 7.82.
For `O=c1n(C2=CCNCC2)c2ccccc2n1S(=O)(=O)c1cc(Cl)sc1Cl` [Example 43, 1-[(2,5-dichlorothien-3-yl)sulfonyl]-3-(1,2,3,6-tetrahydropyridin-4-yl)-1,3-dihydro-2H-benzimidazol-2-one], the negative-log Ki (pKi) is 8.05.
The molecule `O=c1n(C2=CCNCC2)c2ccccc2n1S(=O)(=O)c1sc(Cl)cc1Br` [Example 45, 1-[(3-bromo-5-chlorothien-2-yl)sulfonyl]-3-(1,2,3,6-tetrahydropyridin-4-yl)-1,3-dihydro-2H-benzimidazol-2-one] had a negative logarithm of the Ki (pKi) of 8.00.
On to `O=c1n(C2=CCNCC2)c2ccccc2n1S(=O)(=O)c1cc(Br)c(Cl)s1` [Example 46, 1-[(4-bromo-5-chlorothien-2-yl)sulfonyl]-3-(1,2,3,6-tetrahydropyridin-4-yl)-1,3-dihydro-2H-benzimidazol-2-one], for which the negative logarithm of the Ki (pKi) is 8.05.
Molecule `Cc1c(S(=O)(=O)n2c(=O)n(C3=CCNCC3)c3ccccc32)sc2ccc(Cl)cc12` [Example 48, 1-[(5-chloro-3-methyl-1-benzothien-2-yl)sulfonyl]-3-(1,2,3,6-tetrahydropyridin-4-yl)-1,3-dihydro-2H-benzimidazol-2-one] had a pKi of 7.31.
As for `O=c1n(C2=CCNCC2)c2ccccc2n1S(=O)(=O)c1c(Cl)nc2sccn12` [Example 49, 1-[(6-chloroimidazo[2,1-b][1,3]thiazol-5-yl)sulfonyl]-3-(1,2,3,6-tetrahydropyridin-4-yl)-1,3-dihydro-2H-benzimidazol-2-one], the figure is 8.70.
